Columns and labels:
[1] = target: Substance-P receptor (Rattus norvegicus, UniProt P14600); assay: Inhibition of Tachykinin receptor 1 of rat forebrain tissue
[2] = species on record: Cavia porcellus; assay: pA2 was evaluated from schild analyses of the guinea pig ileum contractility data; type: functional; conditions: read-out: pA2 (converted)
[3] = system: Rattus norvegicus; assay: In vivo SP antagonist activity in rats using SP-induced salivation and paw edema assays; type: functional
[4] = system: Rattus norvegicus; assay: cIn vivo SP antagonist activity in rats using SP-induced salivation and paw edema assays; type: functional

Sequence of Substance-P receptor (P14600 whole entry): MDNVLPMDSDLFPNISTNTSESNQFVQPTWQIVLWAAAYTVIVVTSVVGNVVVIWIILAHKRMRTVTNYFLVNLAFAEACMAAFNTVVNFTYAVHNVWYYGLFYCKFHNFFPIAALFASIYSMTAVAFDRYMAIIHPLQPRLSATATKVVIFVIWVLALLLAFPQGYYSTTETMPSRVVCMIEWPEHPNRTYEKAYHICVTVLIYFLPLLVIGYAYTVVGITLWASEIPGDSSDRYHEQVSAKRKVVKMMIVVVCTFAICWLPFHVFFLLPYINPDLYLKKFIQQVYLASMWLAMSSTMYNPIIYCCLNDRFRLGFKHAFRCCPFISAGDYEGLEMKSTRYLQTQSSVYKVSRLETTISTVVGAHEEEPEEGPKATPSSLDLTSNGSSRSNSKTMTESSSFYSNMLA

SMILES | IC50 [1] [µM] | also measured
CCn1c(/C=C/C=C2\N(C)c3ccccc3C2(C)C)[n+](CCO)c2cc3ccccc3cc21 | 0.45 | 
CCn1c(/C=C/C=C2\N(C)c3ccccc3C2(C)C)[n+](CCOC(C)=O)c2cc3ccccc3cc21 | 0.41 | 
CCn1c(/C=C/C=C2\N(C)c3ccccc3C2(C)C)[n+](CC)c2cc3ccccc3cc21.[Cl-] | 0.39 | Kb [2]: 0.0355 µM; ED50 [3]: 0.48 mg/kg
CCN1/C(=C\C=C\c2n(CC)c3cc4ccccc4cc3[n+]2CC)Sc2ccccc21 | 0.32 | 
CCn1c2[n+](c3cc4ccccc4cc31)CCC2=C/C=C1\N(C)c2ccccc2C1(C)C | 0.79 | 
CCn1c2[n+](c3cc4ccccc4cc31)C(C)CC2=C/C=C1\N(C)c2ccc3ccccc3c2C1(C)C (stereo not given) | 0.31 | 
CCN1/C(=C\C=C2CC(C)[n+]3c2n(CC)c2cc4ccccc4cc23)Sc2ccccc21 (stereo not given) | 0.18 | 
CCN1/C(=C\C=C\c2n(CC)c3cc4ccccc4cc3[n+]2CC)Oc2ccccc21 | 0.31 | 
CCN1/C(=C\C=C2/CCC[n+]3c2n(CC)c2cc4ccccc4cc23)Sc2ccccc21 | 1.3 | 
CCN1/C(=C\C=C2CC[n+]3c2n(CC)c2cc4ccccc4cc23)Oc2ccccc21 | 4.2 | 
CCn1c(/C=C/C=C2\N(C)c3ccccc3C2(C)C)[n+](CC)c2nc3ccccc3nc21.[Cl-] |  | Kb [2]: 0.0589 µM; ED50 [4]: 1.73 mg/kg
CCN1/C(=C\C=C\c2n(CC)c3cc4ccccc4cc3[n+]2CC)C(C)(C)c2ccccc21 | 0.36 | 

From ChEMBL document CHEMBL1125424 (J Med Chem, 1992)
